Reference: US20240067657A1, “AMIDO-SUBSTITUTED PYRIDYL COMPOUNDS AND METHODS OF USE THEREOF FOR THE TREATMENT OF HERPESVIRUSES” (Merck Sharp & Dohme LLC, priority 2020, published 2024)
Like-named read-outs stand apart in the source and are kept apart here.

Legend:
[1] = target: T1, Human cytomegalovirus DNA polymerase (Human cytomegalovirus, UniProt P08546); assay: HCMV polymerase assay (AlphaLISA, IC50); assay type: biochemical; settings: polymerase assay of Example 190
T1 construct: made in house; host or cells: SF21 insect cells (baculovirus vector)
Experimental: (§1) Human cytomegalovirus and varicella zoster virus DNA polymerases were expressed via baculovirus vector in SF21 cells and purified. Heterodimeric nucleic acid substrate used in the herpesvirus polymerase reactions was generated by annealing a 59-mer template to a 17-mer digoxigenin-labeled primer. Polymerase (HCMV final concentration of 0.2 nM; VZV final concentration of 0.4 nM) was combined with an inhibitor compound or DMSO in assay buffer (10 mM HEPES, pH 7.5, 25 mM KCl, 25 mM NaCl, 5 mM MgCl2, 5% glycerol, 0.67 mg/ml bovine serum albuminutes, and 1 mM tris(2-carboxyethyl)phosphine), and this mixture was pre-incubated for 30 minutes at room temperature in 384-well microtiter plates. The polymerization reaction was initiated by the addition of template/primer substrate (final concentration: 1.6 nM), and dNTPs (final concentration: 24 nM dCTP, 24 nMdGTP, 16 nM dATP, 16 nM dTTP, and 0.8 nM biotin-dUTP). After 60 minutes incubation at 37° C., reactions were terminated with quench buffer (25 mM HEPES pH 7.5, 100 mM NaCl, 0.25% Tween-20, 12 mM EDTA, and 1 mg/ml bovine serum albumin). Incorporation of biotinylated UTP was detected with 2.5-5 ug/ml anti-DIG AlphaLISA acceptor beads and 5-10 ug/ml streptavidin AlphaLISA donor beads (Perkin Elmer). Compound effects were normalized to the window defined by the controls (DMSO only and pre-quenched wells), and were fit using a 4-parameter algorithm to report an IC50.

[2] = target: T2, varicella zoster virus DNA polymerase (Varicella-zoster virus, UniProt P09252); assay: VZV polymerase assay (AlphaLISA, IC50); assay type: biochemical; settings: polymerase assay of Example 190
T2 construct: made in house; host or cells: SF21 insect cells (baculovirus vector)
Experimental: as §1

[3] = tested on: HCMV Strain AD169 in MRC-5 cells; assay: Viral qPCR assay HCMV (V0/V1, V2/V3), EC50; assay type: cell-based; settings: Human betaherpesvirus 5, AD169, MRC5, viral qPCR assay of Example 191; read-out: HCMV Cell (EC50)
Experimental: (§2) Viral qPCR Assays (V0/V1)
(§3) MRC5 cells, Vero cells, and MeWo cells were obtained from ATCC and were maintained at 37° C./5% CO2/90% relative humidity in Minimal Essential Medium with 10% fetal bovine serum, […] L-glutamine, 100 units/ml penicillin and 100 ug/ml streptomycin. Assay plates were prepared by dispensing compounds dissolved in DMSO into wells of 384 well collagen-coated plates using an ECHO acoustic dispenser. Each compound was tested in a 10-point, serial 3-fold dilution. Controls included uninfected cells and infected cells treated only with DMSO. Assays were initiated by mixing selected cells, in suspension, with virus, and dispensing 50 μl/well infected cells to pre-plated compounds. Plates were incubated at 37° C./5% CO2/90% relative humidity for ˜72 hrs to permit genomic replication, and infected cells were lysed by the addition of an equal volume of lysis buffer (10 mM Tris-HCl, pH8, 50 mM KCl, 2 mM MgCl2, 0.45% NP-40, 0.45% Tween-20, and 100 μg/ml proteinase K). An aliquot of the lysate was transferred to a 384-well PCR plate and incubated at 56° C. for 1 hour and then at 95° C. for 10 min. Levels of a viral gene and of the cellular control, PPIA (Thermo Fisher Assay ID=Hs04194521_s1), were measured in separate 10 μL qPCR assays using TaqMan® Gene Expression Master Mix (Applied Biosystems), and an 7900HT Fast Real-Time PCR System with 384-Well Block Module. 7-point, serial 10-fold dilutions of a plasmid standard were run on each plate to generate a standard curve, and genome copies numbers were calculated by plotting experimental Ct onto linear regression of the standard curve. Viral genome copy numbers were normalized by cellular control copy number, and compound effects were normalized to the window defined by the controls. Calculated % effects were fit using a 4-parameter algorithm, and EC50 was reported.
(§4) Viral qPCR Assays (V2/V3)
as §3, with “gene” for “gene and of the cellular control, PPIA (Thermo Fisher Assay ID=Hs04194521_s1),”, “in” for “in separate”, “Compound effects on viral” for “Viral”, “number” for “numbers were normalized by cellular control copy number, and compound effects”, “reported. • HCMV: Strain AD169 Street was assayed in MRC-5 cells and was used at 0.05-0.1 pfu/cell. The assays were performed in either growth media or in the same media with 50% fetal bovine serum. Primer-probe set was Thermo Fisher Assay ID=AIFATFK. • VZV: Strain Street was maintained as an infected cell stock in MRC-5 cells. It was assayed in MeWo or MRC5 cells and was used at 0.04-0.1 pfu/cell. […]” for “reported.”

[4] = tested on: HSV-1 Strain F in Vero or MRC5 cells; assay: Viral qPCR assay HSV-1 (V0/V1, V2/V3), EC50; assay type: cell-based; settings: 10%
Experimental: as §2, §3, §4
as §3, with “gene” for “gene and of the cellular control, PPIA (Thermo Fisher Assay ID=Hs04194521_s1),”, “in” for “in separate”, “Compound effects on viral” for “Viral”, “number” for “numbers were normalized by cellular control copy number, and compound effects”, “reported. • HCMV: Strain AD169 Street was assayed in MRC-5 cells and was used at 0.05-0.1 pfu/cell. The assays were performed in either growth media or in the same media with 50% fetal bovine serum. Primer-probe set was Thermo Fisher Assay ID=AIFATFK. • VZV: Strain Street was maintained as an infected cell stock in MRC-5 cells. It was assayed in MeWo or MRC5 cells and was used at 0.04-0.1 pfu/cell. […]” for “reported.”

[5] = tested on: VZV in MeWo or MRC5 cells; assay: Viral qPCR assay VZV (V0/V1, V2/V3), EC50; assay type: cell-based; settings: Human alphaherpesvirus 3, MRC5, MRC5 cells, 10%; read-out: VZV Cell (EC50) MRC5 10%
Experimental: as §2, §3, §4
as §3, with “gene” for “gene and of the cellular control, PPIA (Thermo Fisher Assay ID=Hs04194521_s1),”, “in” for “in separate”, “Compound effects on viral” for “Viral”, “number” for “numbers were normalized by cellular control copy number, and compound effects”, “reported. • HCMV: Strain AD169 Street was assayed in MRC-5 cells and was used at 0.05-0.1 pfu/cell. The assays were performed in either growth media or in the same media with 50% fetal bovine serum. Primer-probe set was Thermo Fisher Assay ID=AIFATFK. • VZV: Strain Street was maintained as an infected cell stock in MRC-5 cells. It was assayed in MeWo or MRC5 cells and was used at 0.04-0.1 pfu/cell. […]” for “reported.”

[6] = Human alphaherpesvirus 1, Vero, VERO cells, read-out: HSV1 Cell (EC50) VERO 10%
[7] = Human alphaherpesvirus 1, MRC5, MRC5 cells, read-out: HSV1 Cell (EC50) MRC5 10%

T2 sequence (P09252 whole entry): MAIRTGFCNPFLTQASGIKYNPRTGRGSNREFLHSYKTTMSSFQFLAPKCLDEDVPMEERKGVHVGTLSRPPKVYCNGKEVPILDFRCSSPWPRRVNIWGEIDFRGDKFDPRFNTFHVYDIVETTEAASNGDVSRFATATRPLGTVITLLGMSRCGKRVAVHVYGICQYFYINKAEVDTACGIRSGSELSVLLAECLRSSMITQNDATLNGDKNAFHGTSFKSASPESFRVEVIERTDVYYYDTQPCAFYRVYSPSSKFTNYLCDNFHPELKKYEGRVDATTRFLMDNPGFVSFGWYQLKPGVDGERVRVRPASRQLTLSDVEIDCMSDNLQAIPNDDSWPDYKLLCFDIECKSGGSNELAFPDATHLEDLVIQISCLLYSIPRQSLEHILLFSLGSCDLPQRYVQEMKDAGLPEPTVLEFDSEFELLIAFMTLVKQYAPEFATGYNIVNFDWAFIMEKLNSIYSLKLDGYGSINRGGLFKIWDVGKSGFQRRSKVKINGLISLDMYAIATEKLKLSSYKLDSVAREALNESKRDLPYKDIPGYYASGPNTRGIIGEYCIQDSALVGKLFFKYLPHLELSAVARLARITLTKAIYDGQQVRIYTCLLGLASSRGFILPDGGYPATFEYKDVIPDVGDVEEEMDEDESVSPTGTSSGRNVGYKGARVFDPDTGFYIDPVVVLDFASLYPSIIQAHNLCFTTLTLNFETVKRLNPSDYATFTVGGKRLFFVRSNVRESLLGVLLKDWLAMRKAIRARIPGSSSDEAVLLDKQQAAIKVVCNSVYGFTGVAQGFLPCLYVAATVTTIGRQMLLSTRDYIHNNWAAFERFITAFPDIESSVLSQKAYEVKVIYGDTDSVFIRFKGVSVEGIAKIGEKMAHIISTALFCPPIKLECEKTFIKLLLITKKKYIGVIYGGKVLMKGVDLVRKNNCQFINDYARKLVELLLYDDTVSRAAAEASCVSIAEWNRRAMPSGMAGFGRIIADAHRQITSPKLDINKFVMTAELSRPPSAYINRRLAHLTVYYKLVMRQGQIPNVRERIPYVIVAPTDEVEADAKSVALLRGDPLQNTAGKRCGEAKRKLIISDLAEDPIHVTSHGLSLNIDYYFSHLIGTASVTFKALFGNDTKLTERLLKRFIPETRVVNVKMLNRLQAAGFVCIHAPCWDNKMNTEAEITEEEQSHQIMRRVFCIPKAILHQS
T1 sequence (P08546 whole entry): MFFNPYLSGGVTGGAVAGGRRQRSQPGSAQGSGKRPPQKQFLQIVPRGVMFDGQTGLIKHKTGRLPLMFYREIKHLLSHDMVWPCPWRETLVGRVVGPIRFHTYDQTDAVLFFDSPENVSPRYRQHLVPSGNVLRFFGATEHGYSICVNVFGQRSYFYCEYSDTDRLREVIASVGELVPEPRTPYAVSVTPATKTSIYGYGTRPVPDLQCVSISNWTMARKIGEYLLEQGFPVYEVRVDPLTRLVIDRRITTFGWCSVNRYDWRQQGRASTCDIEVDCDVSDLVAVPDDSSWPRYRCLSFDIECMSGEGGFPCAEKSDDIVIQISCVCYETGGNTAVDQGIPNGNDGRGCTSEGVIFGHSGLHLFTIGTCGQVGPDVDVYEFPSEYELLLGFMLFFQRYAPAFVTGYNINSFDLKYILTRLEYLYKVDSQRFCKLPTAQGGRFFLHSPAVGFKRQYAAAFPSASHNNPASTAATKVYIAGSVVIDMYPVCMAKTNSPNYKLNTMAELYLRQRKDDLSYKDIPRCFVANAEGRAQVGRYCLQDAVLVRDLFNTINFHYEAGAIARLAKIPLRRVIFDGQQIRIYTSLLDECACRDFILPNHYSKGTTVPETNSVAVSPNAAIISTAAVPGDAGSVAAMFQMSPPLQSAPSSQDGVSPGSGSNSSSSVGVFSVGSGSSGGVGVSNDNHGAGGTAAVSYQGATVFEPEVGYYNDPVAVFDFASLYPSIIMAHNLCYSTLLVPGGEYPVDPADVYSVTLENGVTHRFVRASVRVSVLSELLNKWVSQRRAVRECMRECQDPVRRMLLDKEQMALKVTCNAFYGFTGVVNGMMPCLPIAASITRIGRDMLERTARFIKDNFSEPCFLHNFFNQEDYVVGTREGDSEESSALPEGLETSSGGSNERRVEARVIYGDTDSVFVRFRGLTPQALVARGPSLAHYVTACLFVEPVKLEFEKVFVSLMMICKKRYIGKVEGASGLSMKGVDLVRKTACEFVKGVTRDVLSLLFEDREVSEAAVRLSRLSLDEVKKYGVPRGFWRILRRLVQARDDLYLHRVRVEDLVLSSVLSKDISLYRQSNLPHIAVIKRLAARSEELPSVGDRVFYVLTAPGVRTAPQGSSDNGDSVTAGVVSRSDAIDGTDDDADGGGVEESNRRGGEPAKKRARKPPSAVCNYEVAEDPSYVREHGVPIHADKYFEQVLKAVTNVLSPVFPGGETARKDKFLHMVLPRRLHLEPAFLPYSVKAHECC

Compound | IC50 [1] [nM] | IC50 [2] [nM] | EC50 [3] [nM] | EC50 [4, 6] [nM] | EC50 [5] [nM] | EC50 [4, 7] [nM]
O=C(NCc1ccc(Cl)cc1)c1cc(O[C@H]2CCN3C(=O)OC[C@@H]3C2)c(CC2CCCO2)cn1 (mixture of isomers) [Compound 113] | 56.6 | 18.4 | 357 | 227 |  | 
O=C(NCc1ccc(Cl)cc1)c1cc(O[C@@H]2CCN3C(=O)OC[C@H]3C2)c(-c2cn[nH]c2)cn1 (racemic) [Compound 25] | 13.9 | 4.44 | 259 | 1670 |  | 
O=C(NCc1ccc(Cl)cc1)c1cc(O[C@H]2CCN3C(=O)OC[C@@H]3C2)c(-c2ncco2)cn1 [Compound 4] | 59.1 | 20.3 | 292 | 210 |  | 
CC(=O)N1CCC(Oc2cc(C(=O)NCc3ccc(Cl)cc3)ncc2C#Cc2ccc(C)cn2)CC1 [Compound 71] | 172 | 119 | 1510 | 354 |  | 
CC(=O)N1CCC(Oc2cc(C(=O)NCc3ccc(Cl)cc3)ncc2/C=C/CC(C)O)CC1 (stereo not shown) [Compound 72] | 68.8 | 51.8 | 855 | 1110 |  | 
CC(=O)N1CCC(Oc2cc(C(=O)NCc3ccc(Cl)cc3)ncc2/C=C/CO)CC1 [Compound 73] | 93.2 | 45 | 1780 | 842 |  | 
COC/C=C/c1cnc(C(=O)NCc2ccc(Cl)cc2)cc1OC1CCN(C(C)=O)CC1 [Compound 74] | 83 | 35 | 1440 | 280 |  | 
CC(=O)N1CCC(Oc2cc(C(=O)NCc3ccc(Cl)cc3)ncc2C#Cc2cc(C)ccn2)CC1 [Compound 76] | 209 | 165 | 1230 | 624 |  | 
O=C(NCc1ccc(Cl)cc1)c1cc(O[C@H]2CCN3C(=O)OC[C@@H]3C2)c(CO)cn1 [Compound 98] | 45.6 | 27.9 | 509 | 1520 |  | 
Cn1cc(-c2cnc(C(=O)N3CCCC3c3ccc(Cl)cc3)cc2O[C@H]2CCN3C(=O)OC[C@@H]3C2)cn1 (stereo partly shown) [Compound 100] | 983 | 426 |  |  |  | 
CC(=O)N1CCC(Oc2cc(C)nc(C(=O)NCc3ccc(Cl)cc3)c2)CC1 [Compound 101] | 2020 | 1300 |  |  |  | 
Cc1ncc(-c2cc(O[C@H]3CCN4C(=O)OC[C@@H]4C3)cc(C(=O)NCc3ccc(Cl)cc3)n2)s1 [Compound 102] | 199 | 117 | 8400 | 427 |  | 
Cc1cnc(-c2cnc(C(=O)NCc3ccc(Cl)cc3)cc2OC(C)C)s1 [Compound 103] | 2310 | 956 | 19400 | 3000 |  | 
N#Cc1cc(O[C@H]2CCN3C(=O)OC[C@@H]3C2)cc(C(=O)NCc2ccc(Cl)cc2)n1 [Compound 128] | 169 |  | 1780 |  | 5340 | 8330
O=C(NCc1ccc(Cl)cc1)c1cc(O[C@H]2CCN3C(=O)OC[C@@H]3C2)c(O)cn1 [Compound 146] | 20.1 | 8.04 | 1140 | 6220 |  | 
O=C(NCc1ccc(Cl)cc1)c1cc(O[C@H]2CCN3C(=O)OC[C@@H]3C2)c(-c2cnc(CO)o2)cn1 [Compound 148b] | 1.89 |  | 102 |  | 220 | 116
O=C(NCc1ccc(Cl)cc1)c1cc(O[C@H]2CCN3C(=O)OC[C@@H]3C2)cc(CO)n1 [Compound 152] | 201 | 134 | 1890 | 10700 |  | 

More lines, main results first:

IC50 [1] [nM] | IC50 [2] [nM] | Compound | EC50 [3] [nM] | EC50 [4, 6] [nM] | EC50 [5] [nM] | EC50 [4, 7] [nM]
66.2 |  | CC(=O)N1CCC(Oc2cc(C(=O)NCc3ccc(Cl)cc3)ncc2-c2nnc(C)o2)CC1 [Compound 153] | 478 |  | 913 | 636
46.7 | 5.45 | Cc1cnc(C(=O)NCc2ccc(Cl)cc2)cc1O[C@H]1CCN2C(=O)CC[C@@H]2C1 [Compound 169] | 1490 | 594 |  | 
128 |  | C[C@@H]1CN(C)CCN1c1cc(C(=O)NCc2ccc(C#N)cc2)ncc1C#N [Compound 172] | 419 |  | 4060 | 4190
12.3 |  | CN1CCN(c2cc(C(=O)NCc3ccc(Cl)cc3)ncc2C#N)[C@H](CF)C1 [Compound 173] | 279 |  | 682 | 833
36.5 |  | CN1CCN(c2cc(C(=O)NCc3ccc(C#N)cc3)ncc2C#N)[C@H](CF)C1 [Compound 174] | 472 |  | 1190 | 966
29.2 |  | O=C(c1cc(O[C@H]2CCN3C(=O)OC[C@@H]3C2)c(-c2cnn(C(F)F)c2)cn1)N(CO)Cc1ccc(Cl)cc1 [Compound 180] | 183 |  | 265 | 176
227 |  | O=C(OCN(Cc1ccc(Cl)cc1)C(=O)c1cc(O[C@H]2CCN3C(=O)OC[C@@H]3C2)c(-c2cnn(C(F)F)c2)cn1)C1CCOCC1 [Compound 182] | 148 |  | 213 | 105
894 |  | CN1CCC(N2CCC(C(=O)OCN(Cc3ccc(Cl)cc3)C(=O)c3cc(O[C@H]4CCN5C(=O)OC[C@@H]5C4)c(-c4cnn(C(F)F)c4)cn3)CC2)CC1 [Compound 184] | 519 |  | 314 | 173
25.2 |  | CC(C)[C@H](N)C(=O)OCN(Cc1ccc(Cl)cc1)C(=O)c1cc(O[C@H]2CCN3C(=O)OC[C@@H]3C2)c(-c2cnn(C(F)F)c2)cn1 [Compound 185] | 126 |  | 263 | 152
